For the assay, the target named is GST-Bcl-2 (Homo sapiens (Human), UniProt P10415). The assay can be described thus: Time Resolved-Fluorescence Resonance Energy Transfer (TR-FRET) Bcl-2 binding assay. Summed up:
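Competition TR-FRET: GST-Bcl-2 with fluorescent Bak peptide probe and Tb-anti-GST antibody, compounds serially diluted from 50 μM (2× start, 10% DMSO).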
In general terms: Time-resolved FRET reads energy transfer from a long-lived donor to a nearby acceptor.

The mark [1] stands for this setting: GST-Bcl-2 1 nM, F-Bak peptide probe 100 nM, Tb-anti-GST antibody 1 nM, Ki by Wang's equation.

Where two headings read alike, the source gives them in different places.

From patent US8952157B2, “Apoptosis-inducing agents for the treatment of cancer and immune and autoimmune diseases” (AbbVie Inc., priority 2008, dated 2015) come the findings set out here.

As a reminder, the Ki is a measure of affinity in units of concentration, obtained from inhibition or displacement.

Chain of GST-Bcl-2 (P10415 whole entry): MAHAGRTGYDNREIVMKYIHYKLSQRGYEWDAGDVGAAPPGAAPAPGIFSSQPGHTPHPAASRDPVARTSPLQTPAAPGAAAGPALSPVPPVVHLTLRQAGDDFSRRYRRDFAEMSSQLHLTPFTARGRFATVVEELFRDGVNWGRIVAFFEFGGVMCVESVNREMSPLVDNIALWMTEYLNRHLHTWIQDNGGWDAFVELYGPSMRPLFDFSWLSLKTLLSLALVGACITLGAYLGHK

In turn, `CC1(C)CCC(CN2CCN(c3ccc(C(=O)NS(=O)(=O)c4ccc(NCC5CCOCC5)c([N+](=O)[O-])c4)c(Oc4ccc(NCC(F)(F)F)nc4)c3)CC2)=C(c2ccc(Cl)cc2)C1` [Example 385, 4-(4-{[2-(4-chlorophenyl)-4,4-dimethylcyclohex-1-en-1-yl]methyl}piperazin-1-yl)-N-({3-nitro-4-[(tetrahydro-2H-pyran-4-ylmethyl)amino]phenyl}sulfonyl)-2-({6-[(2,2,2-trifluoroethyl)amino]pyridin-3-yl}oxy)benzamide] came in with a Ki under setting [1] of 49.3 nM. `O=C(NS(=O)(=O)c1ccc(NCCCN2CCOCC2)c([N+](=O)[O-])c1)c1ccc(N2CCN(Cc3ccccc3-c3ccc(Cl)cc3)CC2)cc1Oc1cccc(-c2ccncc2)c1` [Example 98, 4-(4-((4′-chloro-1,1′-biphenyl-2-yl)methyl)piperazin-1-yl)-N-((4-((3-morpholin-4-ylpropyl)amino)-3-nitrophenyl)sulfonyl)-2-(3-pyridin-4-ylphenoxy)benzamide] registered a Ki under setting [1] of 0.959 nM.

Under setting [1], `CN1CCC(Nc2ccc(S(=O)(=O)NC(=O)c3ccc(N4CCN(Cc5cc6c(cc5-c5ccc(Cl)cc5)OCO6)CC4)cc3Oc3ccccc3Cl)cc2[N+](=O)[O-])CC1` [Example 183, 2-(2-chlorophenoxy)-4-(4-{[6-(4-chlorophenyl)-1,3-benzodioxol-5-yl]methyl}piperazin-1-yl)-N-({4-[(1-methylpiperidin-4-yl)amino]-3-nitrophenyl}sulfonyl)benzamide] yielded an inhibition constant Ki of 2.53 nM. In the case of `CC1(C)CCC(CN2CCN(c3ccc(C(=O)NS(=O)(=O)c4ccc(N[C@H]5CC[C@H](N6CCOCC6)CC5)c([N+](=O)[O-])c4)c(Oc4cc5cc[nH]c5cc4F)c3)CC2)=C(c2ccc(Cl)cc2)C1` [Example 234, Trans-4-(4-{[2-(4-chlorophenyl)-4,4-dimethylcyclohex-1-en-1-yl]methyl}piperazin-1-yl)-2-[(6-fluoro-1H-indol-5-yl)oxy]-N-({4-[(4-morpholin-4-ylcyclohexyl)amino]-3-nitrophenyl}sulfonyl)benzamide], the Ki turned out to be 0.099 nM. In turn, `CC1(C)CC(c2ccc(Cl)cc2)=C(CN2CCN(c3ccc(C(=O)NS(=O)(=O)c4ccc(NCC5CCOCC5)c([N+](=O)[O-])c4)c(Oc4cc5cc[nH]c5cc4Cl)c3)CC2)CO1` [Example 275, 2-[(6-chloro-1H-indol-5-yl)oxy]-4-(4-{[4-(4-chlorophenyl)-6,6-dimethyl-5,6-dihydro-2H-pyran-3-yl]methyl}piperazin-1-yl)-N-({3-nitro-4-[(tetrahydro-2H-pyran-4-ylmethyl)amino]phenyl}sulfonyl)benzamide] returned an inhibitory constant (Ki) under setting [1] of 0.081 nM. Still for that read-out and setting: next, `Cc1cc(Oc2cc(N3CCN(CC4=C(c5ccc(Cl)cc5)CC(C)(C)CC4)CC3)ccc2C(=O)NS(=O)(=O)c2ccc(NCC3CCOCC3)c([N+](=O)[O-])c2)cnc1N` [Example 362, 2-[(6-amino-5-methylpyridin-3-yl)oxy]-4-(4-{[2-(4-chlorophenyl)-4,4-dimethylcyclohex-1-en-1-yl]methyl}piperazin-1-yl)-N-({3-nitro-4-[(tetrahydro-2H-pyran-4-ylmethyl)amino]phenyl}sulfonyl)benzamide]: 0.033 nM; `CN1CCC(CNc2ccc(S(=O)(=O)NC(=O)c3ccc(N4CCN(CC5=C(c6ccc(Cl)cc6)CC(C)(C)CC5)CC4)cc3Oc3cccc(Cl)c3)cc2[N+](=O)[O-])CC1` [Example 155, 2-(3-chlorophenoxy)-4-(4-{[2-(4-chlorophenyl)-4,4-dimethylcyclohex-1-en-1-yl]methyl}piperazin-1-yl)-N-[(4-{[(1-methylpiperidin-4-yl)methyl]amino}-3-nitrophenyl)sulfonyl]benzamide]: 0.062 nM; `CC1(C)CCC(CN2CCN(c3ccc(C(=O)NS(=O)(=O)c4ccc(OCC5COCCO5)c([N+](=O)[O-])c4)c(Oc4cc5cc[nH]c5cc4F)c3)CC2)=C(c2ccc(Cl)cc2)C1` (centres unmarked) [Example 285, 4-(4-{[2-(4-chlorophenyl)-4,4-dimethylcyclohex-1-en-1-yl]methyl}piperazin-1-yl)-N-{[4-(1,4-dioxan-2-ylmethoxy)-3-nitrophenyl]sulfonyl}-2-[(6-fluoro-1H-indol-5-yl)oxy]benzamide]: 0.037 nM. Still for that read-out and setting: next, `CCN1CCC(Nc2ccc(S(=O)(=O)NC(=O)c3ccc(N4CCN(CC5=C(c6ccc(Cl)cc6)CC(C)(C)CC5)CC4)cc3Oc3ccccc3Cl)cc2[N+](=O)[O-])CC1` [Example 47, 2-(2-chlorophenoxy)-4-(4-((2-(4-chlorophenyl)-4,4-dimethylcyclohex-1-en-1-yl)methyl)piperazin-1-yl)-N-((4-((1-ethylpiperidin-4-yl)amino)-3-nitrophenyl)sulfonyl)benzamide]: 0.05 nM; `CC1(C)CCC(CN2CCN(c3ccc(C(=O)NS(=O)(=O)c4ccc(OCC5(F)CCN(C(CF)CF)CC5)c([N+](=O)[O-])c4)c(Oc4cnc(N)c(Cl)c4)c3)CC2)=C(c2ccc(Cl)cc2)C1` [Example 371, 2-[(6-amino-5-chloropyridin-3-yl)oxy]-4-(4-{[2-(4-chlorophenyl)-4,4-dimethylcyclohex-1-en-1-yl]methyl}piperazin-1-yl)-N-{[4-({4-fluoro-1-[2-fluoro-1-(fluoromethyl)ethyl]piperidin-4-yl}methoxy)-3-nitrophenyl]sulfonyl}benzamide]: < 0.01 nM. As to `CC1(C)CCC(CN2CCN(c3ccc(C(=O)NS(=O)(=O)c4ccc(NC5CCN(CCO)CC5)c([N+](=O)[O-])c4)c(Oc4cccc(Cl)c4)c3)CC2)=C(c2ccc(Cl)cc2)C1` [Example 162, 2-(3-chlorophenoxy)-4-(4-{[2-(4-chlorophenyl)-4,4-dimethylcyclohex-1-en-1-yl]methyl}piperazin-1-yl)-N-[(4-{[1-(2-hydroxyethyl)piperidin-4-yl]amino}-3-nitrophenyl)sulfonyl]benzamide], the affinity under setting [1], expressed as Ki, was 0.048 nM.

In turn, `Cc1cccc(Oc2cc(N3CCN(CC4=C(c5ccc(Cl)cc5)CC(C)(C)CC4)CC3)ccc2C(=O)NS(=O)(=O)c2ccc(NC3CCN(C)CC3)c([N+](=O)[O-])c2)c1` [Example 182, 4-(4-{[2-(4-chlorophenyl)-4,4-dimethylcyclohex-1-en-1-yl]methyl}piperazin-1-yl)-2-(3-methylphenoxy)-N-({4-[(1-methylpiperidin-4-yl)amino]-3-nitrophenyl}sulfonyl)benzamide] showed a Ki under setting [1] of 0.172 nM. The same measure, in the same setting: with `CN1CCC(Nc2ccc(S(=O)(=O)NC(=O)c3ccc(N4CCN(CC5=C(c6ccc(Cl)cc6)CC(C)(C)CC5)CC4)cc3Oc3cccc(-c4ccc[nH]4)c3)cc2[N+](=O)[O-])CC1` [Example 197, 4-(4-{[2-(4-chlorophenyl)-4,4-dimethylcyclohex-1-en-1-yl]methyl}piperazin-1-yl)-N-({4-[(1-methylpiperidin-4-yl)amino]-3-nitrophenyl}sulfonyl)-2-[3-(1H-pyrrol-2-yl)phenoxy]benzamide] the figure was 0.22 nM; with `CC1(C)CCC(CN2CCN(c3ccc(C(=O)NS(=O)(=O)c4ccc(NC5CCN(C6CCOCC6)CC5)c([N+](=O)[O-])c4)c(Oc4cccc(Cl)c4)c3)CC2)=C(c2ccc(Cl)cc2)C1` [Example 127, 2-(3-chlorophenoxy)-4-(4-{[2-(4-chlorophenyl)-4,4-dimethylcyclohex-1-en-1-yl]methyl}piperazin-1-yl)-N-({3-nitro-4-[(1-tetrahydro-2H-pyran-4-ylpiperidin-4-yl)amino]phenyl}sulfonyl)benzamide], 0.03 nM.
